Experimental data: patent publication US20250361230A1, “LATS Inhibitors and Uses Thereof” (The USA, as Represented by the Secretary, Dept. of Heath …, priority 2022, published 2025)

Target: T1, LATS1 Kinase-NanoLuc fusion in HEK-293 cells (Homo sapiens, UniProt O95835)
T1 construct: host or cells: HEK-293
T1 sequence (O95835 1-1130): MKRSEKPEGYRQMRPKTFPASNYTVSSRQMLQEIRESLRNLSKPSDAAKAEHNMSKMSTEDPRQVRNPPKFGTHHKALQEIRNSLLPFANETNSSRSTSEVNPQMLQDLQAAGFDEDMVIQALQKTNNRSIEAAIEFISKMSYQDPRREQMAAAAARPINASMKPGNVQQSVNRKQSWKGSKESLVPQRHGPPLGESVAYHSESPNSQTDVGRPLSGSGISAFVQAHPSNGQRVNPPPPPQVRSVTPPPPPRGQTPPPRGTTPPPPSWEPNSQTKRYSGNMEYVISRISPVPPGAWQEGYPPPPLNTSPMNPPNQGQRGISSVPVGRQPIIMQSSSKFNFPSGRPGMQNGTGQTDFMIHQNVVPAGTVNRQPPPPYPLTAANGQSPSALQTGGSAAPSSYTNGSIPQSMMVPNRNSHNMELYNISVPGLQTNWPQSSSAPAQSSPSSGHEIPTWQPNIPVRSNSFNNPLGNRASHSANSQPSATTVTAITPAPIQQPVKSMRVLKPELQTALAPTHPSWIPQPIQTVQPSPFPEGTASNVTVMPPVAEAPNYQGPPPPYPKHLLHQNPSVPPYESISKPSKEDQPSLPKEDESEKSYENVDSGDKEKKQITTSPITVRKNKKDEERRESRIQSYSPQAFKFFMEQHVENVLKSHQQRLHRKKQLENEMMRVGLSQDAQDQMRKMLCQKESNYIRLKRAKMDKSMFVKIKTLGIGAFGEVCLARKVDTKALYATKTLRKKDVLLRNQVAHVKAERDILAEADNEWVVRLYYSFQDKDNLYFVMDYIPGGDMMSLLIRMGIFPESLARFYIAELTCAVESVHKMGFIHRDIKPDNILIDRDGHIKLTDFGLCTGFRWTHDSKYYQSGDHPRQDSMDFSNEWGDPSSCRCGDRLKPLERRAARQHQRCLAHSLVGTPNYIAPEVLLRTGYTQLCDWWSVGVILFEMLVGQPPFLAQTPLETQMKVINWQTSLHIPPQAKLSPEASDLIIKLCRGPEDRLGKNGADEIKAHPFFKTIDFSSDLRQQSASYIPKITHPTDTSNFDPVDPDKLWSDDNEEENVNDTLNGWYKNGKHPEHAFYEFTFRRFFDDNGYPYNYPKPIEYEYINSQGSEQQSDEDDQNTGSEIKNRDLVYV
Assay: NanoBRET target engagement assay in transfected HEK-293 cells, LATS1
Type: cell-based
Details: cellular
Procedure, shortened: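 HEK-293 cells transiently transfected with kinase-NanoLuc fusion plasmid for 22-24 h, then incubated with compound and NanoBRET tracer for 1 hour at 37° C. After substrate plus extracellular NanoLuc inhibitor addition, 460 and 600 nm emissions read; no-tracer-corrected BRET ratio used to derive IC50 values.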

- IC50: 15 nM
SMILES: Cc1cc(-c2ccnc3[nH]cc(C#N)c23)ccc1[C@@]1(O)[C@H](C)CN(C2CCS(=O)(=O)CC2)C[C@@H]1C [Compound 2003, 4-(4-((3S,4s,5R)-1-(1,1-dioxidotetrahydro-2H-thiopyran-4-yl)-4-hydroxy-3,5-dimethylpiperidin-4-yl)-3-methylphenyl)-1H-pyrrolo[2,3-b]pyridine-3-carbonitrile]
